PubChem BioAssay AID1963872 (Molecular Pharmacology Branch, DTP, NCI, 2024)

Test system: KRAS patient-derived spheroids with HUVEC/MSC, viability
Test: Anticancer human tumor 519858-162-T-J1-PDC patient-derived colon adenocarcinoma cell line growth inhibition [KRAS2]
Details: for viability, T/C: stronger effect = lower value
Procedure, shortened: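 Combination screen of spheroid viability in tumor-cell co-cultures with endothelial (HUVEC) and mesenchymal stem cell stroma. Each agent was tested in half-log dilutions, topping at clinical Cmax or at 10 microM without a known Cmax.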

[1] = curve of first compound, second compound 0.1 µM
[2] = curve of first compound, second compound 0.316 µM
[3] = curve of first compound, second compound 1 µM
[4] = curve of first compound, second compound 3.16 µM
[5] = curve of first compound, second compound 10 µM
[6] = second compound 0.1 µM, first compound 0.0316 µM
[7] = second compound 0.1 µM, first compound 0.1 µM
[8] = second compound 0.1 µM, first compound 0.316 µM
[9] = second compound 0.1 µM, first compound 1 µM
[10] = second compound 0.1 µM, first compound 3.16 µM
[11] = second compound 0.1 µM, first compound 10 µM
[12] = second compound 0.316 µM, first compound 0.0316 µM
[13] = second compound 0.316 µM, first compound 0.1 µM
[14] = second compound 0.316 µM, first compound 0.316 µM
[15] = second compound 0.316 µM, first compound 1 µM
[16] = second compound 0.316 µM, first compound 3.16 µM
[17] = second compound 0.316 µM, first compound 10 µM
[18] = second compound 1 µM, first compound 0.0316 µM
[19] = second compound 1 µM, first compound 0.1 µM
[20] = second compound 1 µM, first compound 0.316 µM
[21] = second compound 1 µM, first compound 1 µM
[22] = second compound 1 µM, first compound 3.16 µM
[23] = second compound 1 µM, first compound 10 µM
[24] = second compound 3.16 µM, first compound 0.0316 µM
[25] = second compound 3.16 µM, first compound 0.1 µM
[26] = second compound 3.16 µM, first compound 0.316 µM
[27] = second compound 3.16 µM, first compound 1 µM
[28] = second compound 3.16 µM, first compound 3.16 µM
[29] = second compound 3.16 µM, first compound 10 µM
[30] = second compound 10 µM, first compound 0.0316 µM
[31] = second compound 10 µM, first compound 0.1 µM
[32] = second compound 10 µM, first compound 0.316 µM
[33] = second compound 10 µM, first compound 1 µM
[34] = second compound 10 µM, first compound 3.16 µM
[35] = second compound 10 µM, first compound 10 µM
[36] = second compound 0.1 µM, first compound 0.00316 µM
[37] = second compound 0.1 µM, first compound 0.01 µM
[38] = second compound 0.316 µM, first compound 0.00316 µM
[39] = second compound 0.316 µM, first compound 0.01 µM
[40] = second compound 1 µM, first compound 0.00316 µM
[41] = second compound 1 µM, first compound 0.01 µM
[42] = second compound 3.16 µM, first compound 0.00316 µM
[43] = second compound 3.16 µM, first compound 0.01 µM
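Further: compound exposure lasted seven days before readout.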
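Wherever viability, T/C is given: 100% = DMSO vehicle control viability.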

Cn1nccc1Nc1nccc(-c2cc3c(s2)C(C)(C)N(CCN2CCOCC2)C3=O)n1 + COc1cc2nc(C)nc(NC(C)c3cc(N)cc(C(F)(F)F)c3)c2cc1OC1CCOC1
IC50 [1]: 4150 nM | IC50 [2]: 2180 nM | IC50 [3]: 1760 nM | IC50 [4]: 488 nM | IC50 [5]: 1270 nM | viability, T/C [6]: 98.2% | viability, T/C [7]: 73.5% | viability, T/C [8]: 83.4% | viability, T/C [9]: 59.7% | viability, T/C [10]: 67.8% | viability, T/C [11]: 30.3% | viability, T/C [12]: 77.9% | viability, T/C [13]: 89.5% | viability, T/C [14]: 65% | viability, T/C [15]: 70.8% | viability, T/C [16]: 40.6% | viability, T/C [17]: 23.2% | viability, T/C [18]: 82.1% | viability, T/C [19]: 80.7% | viability, T/C [20]: 52.8% | viability, T/C [21]: 72.5% | viability, T/C [22]: 36.3% | viability, T/C [23]: 25.9% | viability, T/C [24]: 60.4% | viability, T/C [25]: 74.3% | viability, T/C [26]: 46.5% | viability, T/C [27]: 46.7% | viability, T/C [28]: 24.4% | viability, T/C [29]: 23% | viability, T/C [30]: 55.7% | viability, T/C [31]: 59.2% | viability, T/C [32]: 59.1% | viability, T/C [33]: 58.8% | viability, T/C [34]: 18.5% | viability, T/C [35]: 14.3%

COc1cc2nccc(Oc3ccc(NC(=O)C4(C(=O)Nc5ccc(F)cc5)CC4)cc3)c2cc1OC + COc1cc2nc(C)nc(NC(C)c3cc(N)cc(C(F)(F)F)c3)c2cc1OC1CCOC1
IC50 [1]: > 10000 nM | IC50 [2]: > 10000 nM | IC50 [3]: > 10000 nM | IC50 [4]: > 10000 nM | IC50 [5]: 2330 nM | viability, T/C [6]: 73.8% | viability, T/C [7]: 73.3% | viability, T/C [8]: 57% | viability, T/C [9]: 107% | viability, T/C [10]: 129% | viability, T/C [11]: 99.9% | viability, T/C [12]: 84.5% | viability, T/C [13]: 82% | viability, T/C [14]: 72.5% | viability, T/C [15]: 85.7% | viability, T/C [16]: 95.5% | viability, T/C [17]: 64% | viability, T/C [18]: 55.7% | viability, T/C [19]: 73.4% | viability, T/C [20]: 71.6% | viability, T/C [21]: 98% | viability, T/C [22]: 112% | viability, T/C [23]: 68.9% | viability, T/C [24]: 75% | viability, T/C [25]: 76.8% | viability, T/C [26]: 77.9% | viability, T/C [27]: 79.4% | viability, T/C [28]: 41.2% | viability, T/C [29]: 82% | viability, T/C [30]: 66.6% | viability, T/C [31]: 76.5% | viability, T/C [32]: 65.3% | viability, T/C [33]: 97.1% | viability, T/C [34]: 1.79% | viability, T/C [35]: 79.3%

CCN1CCN(Cc2ccc(Nc3ncc(F)c(-c4cc(F)c5nc(C)n(C(C)C)c5c4)n3)nc2)CC1 + CNCc1ccccc1-c1csc(C(C)Nc2nc(C)nc3cc(OC)c(OC)cc23)c1
IC50 [1]: 640 nM | IC50 [2]: 178 nM | IC50 [3]: 207 nM | IC50 [4]: 22.4 nM | IC50 [5]: < 3.16 nM | viability, T/C [36]: 86% | viability, T/C [37]: 67.9% | viability, T/C [6]: 88.8% | viability, T/C [7]: 82% | viability, T/C [8]: 61.4% | viability, T/C [9]: 42.8% | viability, T/C [38]: 98.1% | viability, T/C [39]: 76.4% | viability, T/C [12]: 51.9% | viability, T/C [13]: 60.9% | viability, T/C [14]: 48.1% | viability, T/C [15]: 42.9% | viability, T/C [40]: 79% | viability, T/C [41]: 61.4% | viability, T/C [18]: 59.6% | viability, T/C [19]: 59.2% | viability, T/C [20]: 49.3% | viability, T/C [21]: 21.2% | viability, T/C [42]: 56.3% | viability, T/C [43]: 56.5% | viability, T/C [24]: 47.3% | viability, T/C [25]: 16.2% | viability, T/C [26]: 31.1% | viability, T/C [27]: 29.7% | viability, T/C (second compound 10 µM, first compound 0.00316 µM): 0.31% | viability, T/C (second compound 10 µM, first compound 0.01 µM): 0.24% | viability, T/C [30]: 0.75% | viability, T/C [31]: 0.26% | viability, T/C [32]: 0.21% | viability, T/C [33]: 2.71%

CN(C)C/C=C/C(=O)Nc1cc2c(Nc3ccc(F)c(Cl)c3)ncnc2cc1O[C@H]1CCOC1
viability, T/C (compound 0.1 µM): 92.6% [middle of 5 runs] | IC50 (curve of compound): > 100 nM

CC(C)n1nc(-c2ccc3oc(N)nc3c2)c2c(N)ncnc21 + C=CC(=O)N1CCN(c2nc(OCC3CCCN3C)nc3c2CCN(c2cccc4cccc(C)c24)C3)CC1CC#N
IC50 (curve of first compound, second compound 0.0316 µM): > 100 nM | IC50 [1]: 35 nM | IC50 [2]: 79.8 nM | IC50 [3]: > 100 nM | IC50 [4]: 55.7 nM | viability, T/C (second compound 0.0316 µM, first compound 0.000316 µM): 97.9% | viability, T/C (second compound 0.0316 µM, first compound 0.001 µM): 82% | viability, T/C (second compound 0.0316 µM, first compound 0.00316 µM): 81.8% | viability, T/C (second compound 0.0316 µM, first compound 0.01 µM): 63.5% | viability, T/C (second compound 0.0316 µM, first compound 0.0316 µM): 61.8% | viability, T/C (second compound 0.0316 µM, first compound 0.1 µM): 57.7% | viability, T/C (second compound 0.1 µM, first compound 0.000316 µM): 103% | viability, T/C (second compound 0.1 µM, first compound 0.001 µM): 104% | viability, T/C [36]: 74.3% | viability, T/C [37]: 70.2% | viability, T/C [6]: 50.9% | viability, T/C [7]: 39.2% | viability, T/C (second compound 0.316 µM, first compound 0.000316 µM): 74.6% | viability, T/C (second compound 0.316 µM, first compound 0.001 µM): 83.8% | viability, T/C [38]: 78.3% | viability, T/C [39]: 66.8% | viability, T/C [12]: 64.4% | viability, T/C [13]: 46.7% | viability, T/C (second compound 1 µM, first compound 0.000316 µM): 81% | viability, T/C (second compound 1 µM, first compound 0.001 µM): 82.7% | viability, T/C [40]: 78.7% | viability, T/C [41]: 68.2% | viability, T/C [18]: 84.6% | viability, T/C [19]: 66.2% | viability, T/C (second compound 3.16 µM, first compound 0.000316 µM): 80.6% | viability, T/C (second compound 3.16 µM, first compound 0.001 µM): 76.4% | viability, T/C [42]: 76% | viability, T/C [43]: 67% | viability, T/C [24]: 63% | viability, T/C [25]: 38.6%
